Results from patent publication US12024716B2, “Compositions and methods of expansion of T cell populations” (THE BOARD OF TRUSTEES OF THE LELAND STANFORD JUNIOR …, priority 2018, dated 2024).
Read-outs that look alike come from different tables or passages of the source.

Assays:
[1] = system: human naïve CFSE+ CD8+ T cells; test: Naïve CD8+ T-cell differentiation in REP: skewing between TSCM-like and dysfunctional phenotype (mass cytometry, force-directed graph, DPT); details: for CD45RA^Low CD25^High (%) / CD45RA^High CD25^Low (%): gated on CFSE^+CD8^+T cells; for CD45RA^Low CD25^High (%): path toward dysfunctional phenotype; for CD45RA^High CD25^Low (%): path towards TSCM-like phenotype; for CD45RA High CD25 Low (%) / CD45RA Low CD25 High (%): gated on CFSE+CD8+ T cells
[2] = system: pRPS6; details: gated on CFSE+CD8+ T cells
Source text: (§1) Mass cytometry data were normalized and debarcoded.

[3] = system: human naïve CFSE+ CD8+ T cells; details: for CFSE^+ CD8^+ T cells (%)^*: live and non-apoptotic gates not applied
Source text: Peripheral blood mononuclear cells (PBMCs) were isolated from Trima Accel leukocyte reduction system (LRS) chambers (Terumo BCT, Lakewood, CO) of de-identified healthy blood donors (Stanford Blood Center, Palo Alto, CA) using Ficoll-Paque Plus (GE Healthcare, Chicago, IL, USA) density gradient centrifugation according to manufacturer's instructions. For long-term storage, PBMCs were resuspended in FBS with 10% DMSO and stored in liquid nitrogen at density 1-5×10^7 cells/mL. Cryopreserved PBMCs were thawed into cell culture medium (CCM; RPMI 1640 containing 10% FBS, 1× L-glutamine, and 1× penicillin/streptomycin; Thermo Fisher Scientific Waltham, MA, USA) supplemented with 25 U/mL benzonase (SIGMA-ALDRICH®, St. Louis, MO, USA). Cells were then pelleted for 5 minutes at 250×g, resuspended in 10 mL CCM, rested at 37° C., 5% CO2 for 60 minutes, filtered through a 40 μm strainer, and counted. Where indicated, naïve T cells were enriched using Naïve Pan T Cell Isolation Kit (Miltenyi Biotec #130-097-095, Bergisch Gladbach, Germany) according to manufacturer's instructions.
Unless otherwise noted, carboxyfluorescein succinimidyl ester (CFSE) labeling was performed as described by Quah and Parish16, 17. Briefly, 50 μg carboxyfluorescein diacetate succinimidyl ester (CFDA-SE) was reconstituted in 18 μL DMSO (CellTrace CFSE Cell Proliferation Kit, Thermo Fisher Scientific #C34554) to create a 5 mM stock immediately prior to labeling. Cells were resuspended in 1 mL warm CCM and transferred into a new 15 mL Falcon tube lying horizontally. A drop containing 110 μL warm PBS was placed on a side of the tube, and 17.6 μL of 5 mM CFDA-SE was diluted into the drop. The tube was then quickly capped and turned upside right while being vortexed gently, yielding a final concentration of 80 μM CFDA-SE. Cells were incubated for 5 minutes at room temperature, quenched by adding 9 mL warm CCM, and washed twice with 10 mL warm CCM. When only naïve T cells were labeled with CFSE, they were combined with the CFSE-negative PBMC fraction devoid of naïve T cells after labeling to restore original cell proportions. All centrifuging steps for live cells were done for 5 minutes at 250 g, 37° C. CFSE and labeled cells were protected from light throughout the experiment. During protocol optimization, the above labeling protocol for 0.1-10×10^7 cells and CFSE concentrations in range of 0.2 μM to 320 μM was tested. Long-term cell viability and proliferation were assessed. Manufacturer's labeling protocol for CFSE concentrations 0.2 μM to 20 μM, as well as other CFSE suppliers (BIOLEGEND® #422701, San Diego, CA, USA) were also tested.
Samples were processed as previously known in the art. To stain cells for viability, cisplatin (SIGMA-ALDRICH® #P4394) was reconstituted to 100 mM in DMSO and incubated at 37° C. for 3 days to prepare a stock solution, which was then stored in aliquots at −20° C. Cell pellets were resuspended in 1 mL PBS containing 0.5 μM cisplatin, gently vortexed, incubated 5 minutes at room temperature, quenched with 3 mL CCM, pelleted, and resuspended in 1 mL CCM. […] All centrifuging steps for fixed cells were done for 5 minutes at 600×g, 4° C. Cell pellets were optionally stored at −80° C.
as §1

[4] = REP day 3, among CD45RA^High CD25^Low CFSE^+CD8^+T cells
[5] = REP day 3, among CD45RA^Low CD25^High CFSE^+CD8^+T cells
[6] = REP day 4, among CD45RA^High CD25^Low CFSE^+CD8^+T cells
[7] = REP day 4, among CD45RA^Low CD25^High CFSE^+CD8^+T cells
[8] = REP day 5, among CD45RA^High CD25^Low CFSE^+CD8^+T cells
[9] = REP day 5, among CD45RA^Low CD25^High CFSE^+CD8^+T cells
[10] = REP day 7, among CD45RA^High CD25^Low CFSE^+CD8^+T cells
[11] = REP day 7, among CD45RA^Low CD25^High CFSE^+CD8^+T cells
[12] = in CD45RA High CD25 Low subset of CFSE+CD8+ T cells, REP day 3
[13] = in CD45RA High CD25 Low subset of CFSE+CD8+ T cells, REP day 4
[14] = in CD45RA High CD25 Low subset of CFSE+CD8+ T cells, REP day 5
[15] = in CD45RA High CD25 Low subset of CFSE+CD8+ T cells, REP day 7
[16] = in CD45RA Low CD25 High subset of CFSE+CD8+ T cells, REP day 3
[17] = in CD45RA Low CD25 High subset of CFSE+CD8+ T cells, REP day 4
[18] = in CD45RA Low CD25 High subset of CFSE+CD8+ T cells, REP day 5
[19] = in CD45RA Low CD25 High subset of CFSE+CD8+ T cells, REP day 7

Structure (SMILES): CO[C@H]1C[C@@H]2CC[C@@H](C)[C@@](O)(O2)C(=O)C(=O)N2CCCC[C@H]2C(=O)O[C@H]([C@H](C)C[C@@H]2CC[C@@H](O)[C@H](OC)C2)CC(=O)[C@H](C)/C=C(\C)[C@@H](O)[C@@H](OC)C(=O)[C@H](C)C[C@H](C)/C=C/C=C/C=C/1C [Rapamycin, rapamycin]
- CD45RA^Low CD25^High (%) ([1]; REP day 3): 27.34%
- CD45RA^High CD25^Low (%) ([1]; REP day 3): 16.11%
- CD45RA^Low CD25^High (%) ([1]; REP day 4): 30.19%
- CD45RA^High CD25^Low (%) ([1]; REP day 4): 16.03%
- CD45RA^Low CD25^High (%) ([1]; REP day 5): 43.80%
- CD45RA^High CD25^Low (%) ([1]; REP day 5): 8.87%
- CD45RA^Low CD25^High (%) ([1]; REP day 7): 21.79%
- CD45RA^High CD25^Low (%) ([1]; REP day 7): 9.00%
- CD45RA High CD25 Low (%) ([1]; REP day 3): 16.11%
- CD45RA Low CD25 High (%) ([1]; REP day 3): 27.34%
- CD45RA High CD25 Low (%) ([1]; REP day 4): 16.03%
- CD45RA Low CD25 High (%) ([1]; REP day 4): 30.19%
- CD45RA High CD25 Low (%) ([1]; REP day 5): 8.87%
- CD45RA Low CD25 High (%) ([1]; REP day 5): 43.80%
- CD45RA High CD25 Low (%) ([1]; REP day 7): 9.00%
- CD45RA Low CD25 High (%) ([1]; REP day 7): 21.79%
- pRPS6+ (%) (first column, c2) ([2]; REP day 3): 99.49%
- pRPS6+ (%) (second column, c5) ([2]; REP day 3): 0.51%
- pRPS6+ (%) (first column, c2) ([2]; REP day 4): 99.15%
- pRPS6+ (%) (second column, c5) ([2]; REP day 4): 0.85%
- pRPS6+ (%) (first column, c2) ([2]; REP day 5): 99.28%
- pRPS6+ (%) (second column, c5) ([2]; REP day 5): 0.72%
- pRPS6+ (%) (first column, c2) ([2]; REP day 7): 99.44%
- pRPS6+ (%) (second column, c5) ([2]; REP day 7): 0.56%
- Apoptotic cells (% cPARP+ cells in CFSE+ CD8+ T cells) ([3]; REP day 3): 0.43%
- Apoptotic cells (% cPARP^+ cells in CFSE^+ CD8^+T cells) ([3]; REP day 3): 0.43%
- CFSE+ CD8+ T cells (%) ([3]; REP day 3): 2.14%
- Dead cells (1% cisplatin+ cells in CFSE+ CD8+ T cells) ([3]; REP day 3): 0.26%
- Dead cells (1% cisplatin^+ cells in CFSE^+ CD8^+ T cells) ([3]; REP day 3): 0.26%
- Total CFSE+ CD8+ T cells ([3]; REP day 3): 0.14
- Total CFSE^+ CD8^+ T cells ([3]; REP day 3): 0.14
- Total cells (×10^6) ([3]; REP day 3): 6.48 ×10^6
- Apoptotic Cell (%) [3, 4]: 0.53%
- Dead cells (%) [3, 4]: 0.00%
- Apoptotic Cells (%) [3, 5]: 0.31%
- Dead cells (%) [3, 5]: 0.63%
- CFSE^+ CD8^+ T cells (%)^* ([3]; REP day 3): 2.14%
- Apoptotic cells (% cPARP+ cells in CFSE+ CD8+ T cells) ([3]; REP day 4): 0.85%
- Apoptotic cells (% cPARP^+ cells in CFSE^+ CD8^+T cells) ([3]; REP day 4): 0.85%
- CFSE+ CD8+ T cells (%) ([3]; REP day 4): 3.07%
- Dead cells (1% cisplatin+ cells in CFSE+ CD8+ T cells) ([3]; REP day 4): 0.38%
- Dead cells (1% cisplatin^+ cells in CFSE^+ CD8^+ T cells) ([3]; REP day 4): 0.38%
- Total CFSE+ CD8+ T cells ([3]; REP day 4): 0.31
- Total CFSE^+ CD8^+ T cells ([3]; REP day 4): 0.31
- Total cells (×10^6) ([3]; REP day 4): 9.96 ×10^6
- Apoptotic Cell (%) [3, 6]: 0.59%
- Dead cells (%) [3, 6]: 0.39%
- Apoptotic Cells (%) [3, 7]: 0.84%
- Dead cells (%) [3, 7]: 0.21%
- CFSE^+ CD8^+ T cells (%)^* ([3]; REP day 4): 3.07%
- Apoptotic cells (% cPARP+ cells in CFSE+ CD8+ T cells) ([3]; REP day 5): 1.07%
- Apoptotic cells (% cPARP^+ cells in CFSE^+ CD8^+T cells) ([3]; REP day 5): 1.07%
- CFSE+ CD8+ T cells (%) ([3]; REP day 5): 5.14%
- Dead cells (1% cisplatin+ cells in CFSE+ CD8+ T cells) ([3]; REP day 5): 0.21%
- Dead cells (1% cisplatin^+ cells in CFSE^+ CD8^+ T cells) ([3]; REP day 5): 0.21%
- Total CFSE+ CD8+ T cells ([3]; REP day 5): 0.71
- Total CFSE^+ CD8^+ T cells ([3]; REP day 5): 0.71
- Total cells (×10^6) ([3]; REP day 5): 13.91 ×10^6
- Apoptotic Cell (%) [3, 8]: 2.33%
- Dead cells (%) [3, 8]: 0.00%
- Apoptotic Cells (%) [3, 9]: 0.79%
- Dead cells (%) [3, 9]: 0.24%
- CFSE^+ CD8^+ T cells (%)^* ([3]; REP day 5): 5.14%
- Apoptotic cells (% cPARP+ cells in CFSE+ CD8+ T cells) ([3]; REP day 7): 2.16%
- Apoptotic cells (% cPARP^+ cells in CFSE^+ CD8^+T cells) ([3]; REP day 7): 2.16%
- CFSE+ CD8+ T cells (%) ([3]; REP day 7): 6.49%
- Dead cells (1% cisplatin+ cells in CFSE+ CD8+ T cells) ([3]; REP day 7): 1.13%
- Dead cells (1% cisplatin^+ cells in CFSE^+ CD8^+ T cells) ([3]; REP day 7): 1.13%
- Total CFSE+ CD8+ T cells ([3]; REP day 7): 1.82
- Total CFSE^+ CD8^+ T cells ([3]; REP day 7): 1.82
- Total cells (×10^6) ([3]; REP day 7): 28.03 ×10^6
- Apoptotic Cell (%) [3, 10]: 3.47%
- Dead cells (%) [3, 10]: 0.69%
- Apoptotic Cells (%) [3, 11]: 1.15%
- Dead cells (%) [3, 11]: 0.72%
- CFSE^+ CD8^+ T cells (%)^* ([3]; REP day 7): 6.49%
- Apoptotic Cell (%) [3, 12]: 0.53%
- Dead cells (%) [3, 12]: 0.00%
- Apoptotic Cell (%) [3, 13]: 0.59%
- Dead cells (%) [3, 13]: 0.39%
- Apoptotic Cell (%) [3, 14]: 2.33%
- Dead cells (%) [3, 14]: 0.00%
- Apoptotic Cell (%) [3, 15]: 3.47%
- Dead cells (%) [3, 15]: 0.69%
- Apoptotic Cells (%) [3, 16]: 0.31%
- Dead cells (%) [3, 16]: 0.63%
- Apoptotic Cells (%) [3, 17]: 0.84%
- Dead cells (%) [3, 17]: 0.21%
- Apoptotic Cells (%) [3, 18]: 0.79%
- Dead cells (%) [3, 18]: 0.24%
- Apoptotic Cells (%) [3, 19]: 1.15%
- Dead cells (%) [3, 19]: 0.72%
